# Laboratory results reported in patent publication US11912686B2 (Gilead Sciences, Inc., priority 2020, dated 2024).
# Biological target: human LPAR1 (Homo sapiens (Human), UniProt Q92633)
# Experiment: LPAR1 intracellular calcium mobilization assay (antagonist mode, FLIPR)
# Assay type: cell-based
# Settings: CHO-K1 EDG2 cells expressing human LPAR1, LPA 18:2 at EC80 (100 nM), test compound 0.5 nM to 10 μM
# human LPAR1, sequence (Q92633 whole entry): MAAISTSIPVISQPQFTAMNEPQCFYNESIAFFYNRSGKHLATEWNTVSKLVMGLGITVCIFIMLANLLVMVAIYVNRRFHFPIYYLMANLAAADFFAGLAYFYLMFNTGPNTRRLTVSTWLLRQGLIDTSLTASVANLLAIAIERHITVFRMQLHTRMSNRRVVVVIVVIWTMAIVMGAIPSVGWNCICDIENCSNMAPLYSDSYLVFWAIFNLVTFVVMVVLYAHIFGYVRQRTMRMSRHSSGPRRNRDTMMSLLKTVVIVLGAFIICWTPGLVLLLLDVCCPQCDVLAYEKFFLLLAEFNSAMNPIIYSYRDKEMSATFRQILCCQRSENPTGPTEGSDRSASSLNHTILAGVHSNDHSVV
row,Compound,EC50
1,"C[C@@H](OC(=O)Nc1c(-c2ccc(NC(=O)C3CC3)cn2)nnn1C)c1cccnc1Cl [Compound 34, (R)-1-(2-chloropyridin-3-yl)ethyl (4-(5-(cyclopropanecarboxamido)pyridin-2-yl)-1-methyl-1H-1,2,3-triazol-5-yl)carbamate]",429 nM
2,"C[C@@H](OC(=O)Nc1c(-c2ncc(NC(=O)C34CC(F)(C3)C4)cn2)nnn1C)c1cc(F)cnc1Cl [Compound 330, (R)-1-(2-chloro-5-fluoropyridin-3-yl)ethyl (4-(5-(3-fluorobicyclo[1.1.1]pentane-1-carboxamido)pyrimidin-2-yl)-1-methyl-1H-1,2,3-triazol-5-yl)carbamate]",600 nM
3,"C[C@@H](OC(=O)Nc1c(-c2ccc(NC(=O)C3(CN)CC(F)(F)C3)cn2)nnn1C)c1cc(F)cnc1Cl [Compound 304, (R)-1-(2-chloro-5-fluoropyridin-3-yl)ethyl (4-(5-(1-(aminomethyl)-3,3-difluorocyclobutane-1-carboxamido)pyridin-2-yl)-1-methyl-1H-1,2,3-triazol-5-yl)carbamate]",46.4 nM
4,"C[C@@H](OC(=O)Nc1c(-c2ccc(NC(=O)C3CCC3)cn2)nnn1C)c1cccnc1Cl [Compound 35, (R)-1-(2-chloropyridin-3-yl)ethyl (4-(5-(cyclobutanecarboxamido)pyridin-2-yl)-1-methyl-1H-1,2,3-triazol-5-yl)carbamate]",103 nM
5,"C[C@@H](OC(=O)Nc1c(-c2ccc(NC(=O)N3CCC3)cn2)nnn1C)c1cccnc1Cl [Compound 188, (R)-1-(2-chloropyridin-3-yl)ethyl (4-(5-(azetidine-1-carboxamido)pyridin-2-yl)-1-methyl-1H-1,2,3-triazol-5-yl)carbamate]",452 nM
6,"Cc1noc(C(=O)Nc2ccc(-c3nnn(C)c3NC(=O)O[C@H](C)c3cc(F)cnc3F)nc2)c1C [Compound 276, (R)-1-(2,5-difluoropyridin-3-yl)ethyl (4-(5-(3,4-dimethylisoxazole-5-carboxamido)pyridin-2-yl)-1-methyl-1H-1,2,3-triazol-5-yl)carbamate]",140 nM
7,"C[C@@H](OC(=O)Nc1c(-c2ccc(NC(=O)[C@@H]3C[C@H]3F)cn2)nnn1C)c1cccnc1F [Compound 169, (R)-1-(2-fluoropyridin-3-yl)ethyl (4-(5-((1S,2R)-2-fluorocyclopropane-1-carboxamido)pyridin-2-yl)-1-methyl-1H-1,2,3-triazol-5-yl)carbamate]",191 nM
8,"C[C@@H](OC(=O)Nc1c(-c2ccc(NC(=O)[C@]3(C#N)C[C@H]3C(F)F)cn2)nnn1C)c1cc(F)cnc1F [Compound 245, (R)-1-(2,5-difluoropyridin-3-yl)ethyl (4-(5-((1R,2R)-1-cyano-2-(difluoromethyl)cyclopropane-1-carboxamido)pyridin-2-yl)-1-methyl-1H-1,2,3-triazol-5-yl)carbamate]",11.7 nM
9,"Cc1ncc(C(=O)Nc2ccc(-c3nnn(C)c3NC(=O)O[C@H](C)c3cc(F)cnc3F)nc2)o1 [Compound 256, (R)-1-(2,5-difluoropyridin-3-yl)ethyl (1-methyl-4-(5-(2-methyloxazole-5-carboxamido)pyridin-2-yl)-1H-1,2,3-triazol-5-yl)carbamate]",209 nM
10,"C[C@@H](OC(=O)Nc1c(-c2ccc(NC(=O)c3ccnc(F)c3F)cn2)nnn1C)c1cccnc1F [Compound 294, (R)-1-(2-fluoropyridin-3-yl)ethyl (4-(5-(2,3-difluoroisonicotinamido)pyridin-2-yl)-1-methyl-1H-1,2,3-triazol-5-yl)carbamate]",238 nM
11,"C[C@@H](OC(=O)Nc1c(-c2ccc(NC(=O)C34COC(C3)C4)cn2)nnn1C)c1cccnc1Cl [Compound 104, (R)-1-(2-chloropyridin-3-yl)ethyl (4-(5-(2-oxabicyclo[2.1.1]hexane-4-carboxamido)pyridin-2-yl)-1-methyl-1H-1,2,3-triazol-5-yl)carbamate]",560 nM
12,"C[C@@H](OC(=O)Nc1c(-c2cc(F)c(NC(=O)c3ccc(C(F)(F)F)nc3)cn2)nnn1C)c1cccnc1Cl [Compound 317, (R)-1-(2-chloropyridin-3-yl)ethyl (4-(4-fluoro-5-(6-(trifluoromethyl)nicotinamido)pyridin-2-yl)-1-methyl-1H-1,2,3-triazol-5-yl)carbamate]",90.5 nM
13,"C[C@@H](OC(=O)Nc1c(-c2ccc(NC(=O)C3CC4(COC4)C3)cn2)nnn1C)c1cccnc1Cl [Compound 42, (R)-1-(2-chloropyridin-3-yl)ethyl (4-(5-(2-oxaspiro[3.3]heptane-6-carboxamido)pyridin-2-yl)-1-methyl-1H-1,2,3-triazol-5-yl)carbamate]",201 nM
14,"C[C@@H](OC(=O)Nc1c(-c2ccc(NC(=O)C3(N)CC(F)(F)C3)cn2)nnn1C)c1cccnc1Cl [Compound 310, (R)-1-(2-chloropyridin-3-yl)ethyl (4-(5-(1-amino-3,3-difluorocyclobutane-1-carboxamido)pyridin-2-yl)-1-methyl-1H-1,2,3-triazol-5-yl)carbamate]",454 nM
15,"C[C@@H](OC(=O)Nc1c(-c2ccc(NC(=O)C3[C@@H]4COC[C@@H]34)cn2)nnn1C)c1cccnc1Cl (stereo partly drawn) [Compound 158, (R)-1-(2-chloropyridin-3-yl)ethyl (4-(5-((1R,5R)-3-oxabicyclo[3.1.0]hexane-6-carboxamido)pyridin-2-yl)-1-methyl-1H-1,2,3-triazol-5-yl)carbamate]",117 nM
16,"C[C@@H](OC(=O)Nc1c(-c2ccc(NC(=O)C3CC4(CCC4)C3)cn2)nnn1C)c1cccnc1Cl [Compound 73, (R)-1-(2-chloropyridin-3-yl)ethyl (1-methyl-4-(5-(spiro[3.3]heptane-2-carboxamido)pyridin-2-yl)-1H-1,2,3-triazol-5-yl)carbamate]",17.3 nM
17,"C[C@@H](OC(=O)Nc1c(-c2ccc(NC(=O)c3ccc(Cl)nc3F)cn2)nnn1C)c1cc(F)cnc1F [Compound 262, (R)-1-(2,5-difluoropyridin-3-yl)ethyl (4-(5-(6-chloro-2-fluoronicotinamido)pyridin-2-yl)-1-methyl-1H-1,2,3-triazol-5-yl)carbamate]",23.7 nM
18,"C[C@@H](OC(=O)Nc1c(-c2ccc(NC(=O)C3(CN)CC3(F)F)cn2)nnn1C)c1cc(F)cnc1F (stereo partly drawn) [Compound 300, (R)-1-(2,5-difluoropyridin-3-yl)ethyl (4-(5-(1-(aminomethyl)-2,2-difluorocyclopropane-1-carboxamido)pyridin-2-yl)-1-methyl-1H-1,2,3-triazol-5-yl)carbamate]",961 nM
19,"CC(C#N)C(=O)Nc1ccc(-c2nnn(C)c2NC(=O)O[C@H](C)c2cccnc2Cl)nc1 (stereo partly drawn) [Compound 143, (R)-1-(2-chloropyridin-3-yl)ethyl (4-(5-(2-cyanopropanamido)pyridin-2-yl)-1-methyl-1H-1,2,3-triazol-5-yl)carbamate]",189 nM
20,"C[C@@H](OC(=O)Nc1c(-c2ccc(NC(=O)c3cnc(F)cc3F)cn2)nnn1C)c1cc(F)cnc1F [Compound 255, (R)-1-(2,5-difluoropyridin-3-yl)ethyl (4-(5-(4,6-difluoronicotinamido)pyridin-2-yl)-1-methyl-1H-1,2,3-triazol-5-yl)carbamate]",346 nM
21,"C[C@@H](OC(=O)Nc1c(-c2ccc(NC(=O)c3ccnc(S(C)(=O)=O)c3)cn2)nnn1C)c1cc(F)cnc1F [Compound 273, (R)-1-(2,5-difluoropyridin-3-yl)ethyl (1-methyl-4-(5-(2-(methylsulfonyl)isonicotinamido)pyridin-2-yl)-1H-1,2,3-triazol-5-yl)carbamate]",248 nM
22,"C[C@@H](OC(=O)Nc1c(-c2ncc(NC(=O)c3ccc(Cl)nc3)cn2)nnn1C)c1cc(F)cnc1F [Compound 319, (R)-1-(2,5-difluoropyridin-3-yl)ethyl (4-(5-(6-chloronicotinamido)pyrimidin-2-yl)-1-methyl-1H-1,2,3-triazol-5-yl)carbamate]",1500 nM
23,"C[C@@H](OC(=O)Nc1c(-c2ccc(NC(=O)C3CC(F)(C#N)C3)cn2)nnn1C)c1cccnc1Cl (stereo partly drawn) [Compound 123, (R)-1-(2-chloropyridin-3-yl)ethyl (4-(5-(3-cyano-3-fluorocyclobutane-1-carboxamido)pyridin-2-yl)-1-methyl-1H-1,2,3-triazol-5-yl)carbamate]",626 nM
24,"C[C@@H](OC(=O)Nc1c(-c2ccc(NC(=O)[C@H]3C[C@@H](O)C3)cn2)nnn1C)c1cccnc1Cl [Compound 155, (R)-1-(2-chloropyridin-3-yl)ethyl (4-(5-((1s,3S)-3-hydroxycyclobutane-1-carboxamido)pyridin-2-yl)-1-methyl-1H-1,2,3-triazol-5-yl)carbamate]",748 nM
25,"C[C@@H](OC(=O)Nc1c(-c2ccc(NC(=O)C#CC(C)(C)O)cn2)nnn1C)c1cccnc1Cl [Compound 111, (R)-1-(2-chloropyridin-3-yl)ethyl (4-(5-(4-hydroxy-4-methylpent-2-ynamido)pyridin-2-yl)-1-methyl-1H-1,2,3-triazol-5-yl)carbamate]",191 nM
26,"C[C@@H](OC(=O)Nc1c(-c2ccc(NC(=O)C34CC(C#N)(C3)C4)cn2)nnn1C)c1cc(F)cnc1F [Compound 162, (R)-1-(2,5-difluoropyridin-3-yl)ethyl (4-(5-(3-cyanobicyclo[1.1.1]pentane-1-carboxamido)pyridin-2-yl)-1-methyl-1H-1,2,3-triazol-5-yl)carbamate]",84.7 nM
27,"C[C@@H](OC(=O)Nc1c(-c2ccc(NC(=O)c3cc(F)cnc3F)cn2)nnn1C)c1cc(F)cnc1F [Compound 241, (R)-1-(2,5-difluoropyridin-3-yl)ethyl (4-(5-(2,5-difluoronicotinamido)pyridin-2-yl)-1-methyl-1H-1,2,3-triazol-5-yl)carbamate]",111 nM
28,"C[C@@H](OC(=O)Nc1c(-c2cnc(NC(=O)C3(C#N)CC3)cn2)nnn1C)c1cccnc1Cl [Compound 8, (R)-1-(2-chloropyridin-3-yl)ethyl (4-(5-(1-cyanocyclopropane-1-carboxamido)pyrazin-2-yl)-1-methyl-1H-1,2,3-triazol-5-yl)carbamate]",154 nM
29,"CC(=O)Nc1ccc(-c2nnn(C)c2NC(=O)O[C@H](C)c2cccnc2Cl)nc1 [Compound 23, (R)-1-(2-chloropyridin-3-yl)ethyl (4-(5-acetamidopyridin-2-yl)-1-methyl-1H-1,2,3-triazol-5-yl)carbamate]",1100 nM
